In patent US9862748B2, “Peptide compounds and methods of production and use thereof” (priority 2012, dated 2018):
Square brackets hold non-standard residues; d marks the D form. Ends that are not written are not given here. Peptide text beside a SMILES is read from it. AEEA = NCCOCCOCC(=O)O

Tests used:
[1] = tested on: Acinetobacter baumannii ATCC® BAA-747™; type: cell-based
Protocol: (§1) In vitro bactericidal activity: The three peptide compounds BCC01-5RMP (SEQ ID NO: 21), BCC02-5RMP (SEQ ID NO: 22), and BCC03-5RMP (SEQ ID NO: 23) were assayed for in vitro bactericidal activity against Pseudomonas aeruginosa, Escherichia coli, Salmonella typhimurium, and Acinetobacter baumannii. The starting inoculum for all experiments was 1×10^6 colony forming units (CFU)/ml. The CFU remaining at the end of 60 to 180 minute incubation was determined, and the data plotted as a log reduction in CFU/ml.
(§2) For FIGS. 10-13, in vitro bactericidal assays were performed using a starting inoculum of 1×10^6 CFU/ml of the bacterial suspension. The CFU remaining at the end of the 60-180 minute incubation was determined, and the data was plotted as log reduction in CFU/ml.
(§3) In particular, each of the test peptides (CAP37 peptides 120-146WR, 120-146WH, and 95-122 (SEQ ID NOs: 30, 31, and 26, respectively)) was used at 25, 12.5, 6.25, and 3.12 μM. Gentamicin was used at 4 μg/ml. 1×10^6/ml Acinetobacter baumannii ATCC® BAA-747™ or Pseudomonas aeruginosa ATCC® 27853™ (American Type Culture Collection, Manassas, Va.) were incubated with the peptides, negative buffer control (tryptone saline), and positive control gentamicin at pH 5.5 or 7.2. A 60 minute incubation was used for Acinetobacter baumannii ATCC® BAA-747™, while a 180 minute incubation was used for Pseudomonas aeruginosa ATCC® 27853™. 50 μl aliquots were plated out on agar plates and incubated overnight. Colony forming units were counted after overnight incubation and CFU/ml calculated.

[2] = tested on: Pseudomonas aeruginosa ATCC® 27853™; type: cell-based; settings: gentamicin 4 μg/ml; for activity against P. aeruginosa: 120-146WR at 25 μM
Protocol: as §1, §2, §3
For FIG. 14, 1×10^6/ml Pseudomonas aeruginosa ATCC® 27853™ were incubated with each of the test peptides (CAP37 peptides 120-146WR, 120-146WH, 120-146QR, 120-146QH, 120-146QR-5RMP, and 120-146QH-5RMP (SEQ ID NOs: 30, 31, 28, 29, 32, and 33, respectively)) at 150, 75, and 37.5 μg/ml, or negative buffer control (tryptone saline), for 180 minutes at pH 5.5. 50 μl aliquots were plated out on agar plates and incubated overnight. Colony forming units were counted after overnight incubation and CFU/ml calculated.

[3] = tested on: swine skin wounds; assay: Swine full thickness excisional dermal wound model, wound area; type: in vivo
Protocol: In this Example, peptide compounds of the presently disclosed and claimed inventive concept(s) were evaluated as to their activity on the dermal wound healing process in a clinically relevant swine full thickness excisional wound model. Three different peptide formulations (Group B, Peptide 95-122 (SEQ ID NO: 26); Group C, Peptide 120-146WH (SEQ ID NO: 31); and Group D, Peptide 120-146QH-5RMP (SEQ ID NO: 33)) were each evaluated at the same concentration (3 mg/ml). Sterile saline served as the control (Group A).
(§4) Full thickness excisional wounds were induced on the dorsum of swine (N=3) using a 1.0 cm biopsy punch. Treatments were administered (0.20 ml) to each wound (N=6 wounds per group), and the wounds were dressed with standard occlusive dressing ([…]™, 3M Corporation, St. Paul, Minn.). Treatments were reapplied daily and dressings changed. Clinical wound healing observations and wound area (2 mm) measurements were performed on days 0, 3, 5, 7, 10, and 14 post-wounding. Wound area (2 mm) data were expressed as percentage (%) of wound healing. Animals were terminated on day 14 with wounds harvested and processed for histological evaluation. […] All peptide formulation treatment groups healed faster with greater rate of closure and re-epithelialization over time, as compared to the saline control (Group A).

[4] = tested on: swine skin wounds; assay: Swine dermal wound model, histological evaluation; type: in vivo; settings: day 14 post-wounding
Protocol: The characteristics that were measured are required to indicate features of a well-healed wound. Inflammation should be low and re-epithelialization high.
as §4
The histology correlated with the clinical observations. […] There were minimal differences in the amount or character of granulation tissue, inflammation, and angiogenesis. All the wounds were well filled and vascularized.

[5] = tested on: Pseudomonas clinical isolate B64; assay: BIOSCREEN C growth assay / MIC, antibiotic in combination with peptide; type: cell-based, P. aeruginosa; settings: for MIC, antibiotic alone: clinical isolate of P. aeruginosa, 1×10^5 CFU/well, 24 hours
Protocol: The peptide and antibiotics were set up in the wells of the microtiter plate at starting ratios of MIC equivalents of antibiotic:peptide at 3:1, 1:1, and 1:3. They were serially diluted to concentrations well below suboptimal/sublethal levels of the antibiotic and peptide. The organism was added (1×10^5 CFU/well), the BIOSCREEN C™ assay (Growth Systems USA, Piscataway, N.J.) was performed, and data was collected over 24 hours.

[6] = 3 mg/ml, 0.20 ml per wound, reapplied daily

Compound: GTRCQVAGWGSWRSGGRLSRFPRFVNV [Peptide 120-146WR]
- activity against A. baumannii at 12.5 μM ([1]; 12.5 μM): highly active
- activity against A. baumannii at 25 μM ([1]; 25 μM): highly active
- activity against P. aeruginosa [2]: highly active
- effectiveness against Pseudomonas aeruginosa compared with gentamicin, pH 7.2 ([2]; peptide at 25 VIM (so in the source)): as effective as the standard antibiotic gentamicin

Compound: CC(C)C[C@H](NC(=O)[C@H](CCCNC(=N)N)NC(=O)CNC(=O)CNC(=O)[C@H](CO)NC(=O)[C@H](Cc1c[nH]cn1)NC(=O)[C@H](CCC(N)=O)NC(=O)[C@H](CO)NC(=O)CNC(=O)[C@H](Cc1c[nH]c2ccccc12)NC(=O)CNC(=O)[C@H](C)NC(=O)[C@@H](NC(=O)[C@H](CCC(N)=O)NC(=O)[C@H](CS)NC(=O)[C@H](CCCNC(=N)N)NC(=O)[C@@H](NC(=O)CNC(=O)[C@H](CCCNC(=N)N)NC(=O)[C@H](CCCNC(=N)N)NC(=O)[C@H](CCCNC(=N)N)NC(=O)[C@H](CCCNC(=N)N)NC(=O)COCCOCCNC(=O)COCCOCCN)[C@@H](C)O)C(C)C)C(=O)N[C@@H](CO)C(=O)N[C@@H](CCCNC(=N)N)C(=O)N[C@@H](Cc1ccccc1)C(=O)N1CCC[C@H]1C(=O)N[C@@H](CCCNC(=N)N)C(=O)N[C@@H](Cc1ccccc1)C(=O)N[C@H](C(=O)N[C@@H](CC(N)=O)C(=O)N[C@H](C(=O)N[C@@H](CCCNC(=N)N)C(=O)O)C(C)C)C(C)C [120-146QH-5RMP] (H-[AEEA][AEEA]RRRRGTRCQVAGWGSQHSGGRLSRFPRFVNVR-OH; N-terminus and C-terminus assumed)
- Mean Wound Healing (%) Day 0 [3, 6]: 0.0%
- Mean Wound Healing (%) Day 3 [3, 6]: 22.5%
- Mean Wound Healing (%) Day 5 [3, 6]: 34.1%
- Mean Wound Healing (%) Day 7 [3, 6]: 64.1%
- Mean Wound Healing (%) Day 10 [3, 6]: 93.7%
- Mean Wound Healing (%) Day 14 [3, 6]: 98.0%
- dermal wound healing ([3]; topical 3 mg/ml over 14 days, vs saline): accelerate dermal wound healing
- epidermal resurfacing and maturation of the epidermis versus saline control [4]: greater extent of epidermal resurfacing and maturation of the epidermis
- Histopathology Results, Mean Angiogenesis ([4]; 3 mg/ml): 1.3
- Histopathology Results, Mean Epithelization ([4]; 3 mg/ml): 4.0
- Histopathology Results, Mean Granulation ([4]; 3 mg/ml): 4.0
- Histopathology Results, Mean Inflammation ([4]; 3 mg/ml): 0.5

Compound: C[C@H]1COc2c(N3CCN(C)CC3)c(F)cc3c(=O)c(C(=O)O)cn1c23 [Levofloxacin, reference compound]
- MIC, antibiotic alone [5]: 15 µg/mL

Compound: CO/N=C(\C(=O)N[C@@H]1C(=O)N2C(C(=O)O)=C(COC(C)=O)CS[C@H]12)c1csc(N)n1 [Cefotaxime, reference compound]
- bactericidal impact of antibiotic alone at sublethal concentration ([5]; 2.8 μg/ml of Cefotaxime): very little bactericidal impact
- MIC, antibiotic alone [5]: 15 µg/mL

Compound: gentamicin [reference compound]
- activity against Acinetobacter baumannii at pH 5.5 ([1]; gentamicin 4 μg/ml, 60 minutes): unable to kill the bacteria
- activity against Acinetobacter baumannii at pH 7.2 ([1]; gentamicin 4 μg/ml, 60 minutes): active against the bacteria
- activity against P. aeruginosa [2]: highly active
- log reduction of CFU/ml, Pseudomonas aeruginosa, pH 5.5 ([2]; 180 minutes, FIG. 13): 2 log
